In US20190300845A1, “SEQUENTIAL ADDITION OF MOLECULAR GERMINANTS TO BACTERIAL SPORES” (NOVOZYMES BIOAG A/S, priority 2016, published 2019):

Experiments:
[1] = test system: spores from Bacillus megaterium strain SB3112; test: Germinant testing by decrease in relative OD580; assay type: cell-based; conditions: amino acid along with KBr and D-glucose; each 3 mM
[2] = test system: spores from Bacillus pumilus strain SB3189; test: Germinant testing by decrease in relative OD580; assay type: cell-based; conditions: substance alone, at a concentration of 3 mM
[3] = test system: Bacillus pumilus strain SB3189 spores; test: Sequential germinant addition, germination by dipicolinic acid (DPA) release (Tb-DPA fluorescence); assay type: cell-based
Experimental: (§1) Germination of spores in these studies was determined by measuring dipicolinic acid (DPA). DPA is about 10% of the mass of endospores, which is generally released when germination occurs. Boiling spores generally releases all of the DPA (used as a positive control). DPA release was detected using terbium chloride (TbCl3), as described below.
(§2) To perform the germination assays, 30 μl of spores were added to wells of a 96-well flat-bottom microtiter plate. Subsequently, 35 μl of a 250 μM TbCl3 stock was added. At time 0, 85 μl of a D-fructose solution was added, to give a final concentration of 10 mM D-fructose. The solution was mixed by pipetting, the microtiter plate was placed into a plate reader (Synergy H4 Multi-Mode Reader, Bio-Tek), and the sample wells were measured for presence of a fluorescent Tb-DPA product over time. Tb-DPA is excited at 270 nm and emits at 545 nm. All experimental samples were tested in triplicate. Baseline controls for each sample were generated by omitting L-alanine and these were performed in duplicate. All sample wells were measured immediately after D-fructose was added (time 0) and then over time. For each time point, the data were normalized to values for the spores that had been boiled for two hours to force 100% release of DPA from the spores.
The experiment was generally performed as described in Example 3. SB3189 spores were treated with various concentrations of L-alanine (0.0 mM, 0.5 mM, 1.0 mM, 2.0 mM, 3.0 mM, 4.0 mM, 5.0 mM, 6.0 mM, 7.0 mM, 8.0 mM, 9.0 mM, or 10.0 mM) for 24 hours at 4° C. […] D-fructose (10 mM) was then added to the L-alanine-treated spores (this was time 0) and DPA levels were measured over time.

[4] = test system: Bacillus subtilis strain SB3086 spores; test: as above; assay type: cell-based
Experimental: Bacterial spores from Bacillus subtilis strain SB3086 were prepared as described in the first paragraph of Example 1. The spore preparations were washed in sterile 4° C. water by centrifugation (10,000×g, 1 minute), aspirating the supernatant from the pellet, and suspending the spore pellet in water. This was performed three consecutive times. Optical densities of washed spore preparations were measured in sterile water at 4° C. using a Synergy H4 Multi-Mode Reader (Bio-Tek). The spore preparations were set to 5 OD600 units per ml. By phase-contrast microscopy, 99% of the particles in the samples appeared to be ungerminated spores.
The spores were then treated with 1 mM of L-alanine for 24 hours at 4° C. […] In one experiment, spores that had been treated with 1 mM L-alanine for 24 hours were washed in water to remove the L-alanine. Negative controls were not treated with L-alanine. Spores to be used as positive controls were boiled for 2 hours to release dipicolinic acid (see below).
as §1, §2

[5] = test system: spores from Bacillus amyloliquefaciens strain SB3615; test: Germinant testing by decrease in relative OD580
[6] = test system: Bacillus megaterium strain SB3112 spores; test: KBr pretreatment, germination by dipicolinic acid (DPA) release (Tlag, Gmax); assay type: cell-based
Experimental: as §1, §2
These studies were generally performed as described in Example 3. SB3112 spores, heat-activated or not heat-activated (not heat-activated are called “native”), were treated with 0.5, 3.0, or 10.0 mM KBr overnight at either 4° or 22° C. […] The time at which the subsequent addition was made to the spores was considered time 0. DPA concentration was measured over time.
To facilitate comparison of the different samples, values for Tlag and Gmax were calculated for each spore treatment. Tlag is the time after exposure to germinants that a population of spores begins to rapidly release DPA into the environment. Tlag indicates, in part, how rapidly a population of spores responds to germinants. Gmax is the maximum percentage of DPA that a sample releases during an experiment, divided by the DPA released by the sample when boiled. Gmax is proportional to the percentage of spores in a population that germinates.

Question: `CC(C)C[C@H](N)C(=O)O` [L-leucine] was tested. Which “Germination of spores (decrease in relative OD580)” value [1] did it give?
Answer: Its value is “caused germination of the spores”.

Question: Which results are given for `C[C@H](N)C(=O)O` [L-alanine]?
Answer: Germination of spores (decrease in relative OD580) [1]: caused germination of the spores; Germination of spores (decrease in relative OD580) [2]: None; Germination due to the L-alanine treatment, determined by microscopy ([3]; 0.5-10.0 mM L-alanine for 24 hours at 4° C., before D-fructose): no germination; Extent of germination versus amount of L-alanine ([3]; 0.5 to 10 mM L-alanine pretreatment, then 10 mM D-fructose): increased as the amount of L-alanine increased; Germination (DPA release) on addition of D-fructose ([3]; spores treated with L-alanine 24 hours, then D-fructose (10 mM) at time 0): caused germination; Germination as a result of the L-alanine treatment, determined by microscopy ([4]; 1 mM L-alanine for 24 hours at 4° C., before D-fructose): No germination; Germination (DPA release) when D-fructose was added ([4]; L-alanine 24 hours, washed out prior to addition of D-fructose): did not germinate; Germination (DPA release) when D-fructose was added ([4]; spores treated with 1 mM L-alanine for 24 hours, then 10 mM D-fructose): germinated; Molecules causing germination ([5]; strain SB3615, each substance 3 mM): L-alanine; Germination of spores (decrease in relative OD580) ([5]; substance alone, 3 mM, heat-activated spores, 37° C., 70 minutes): could cause germination

Question: With `O=C(O)[C@@H]1CCCN1` [L-proline] as the molecule, how does the “Germination of spores (decrease in relative OD580)” value [1] read?
Answer: The value was “caused germination of the spores”.

Question: Which “Germination of spores (decrease in relative OD580)” value [1] does the source give for `CC[C@H](C)[C@H](N)C(=O)O` [L-isoleucine] here?
Answer: Its value is “caused germination of the spores”.

Question: For `N[C@@H](CS)C(=O)O` [L-cysteine], which “Germination of spores (decrease in relative OD580)” value [2] is on record?
Answer: Its value is “None”.

Question: Which “Germination of spores (decrease in relative OD580)” value [1] does the source give for `N[C@@H](Cc1ccccc1)C(=O)O` [L-phenylalanine] here?
Answer: The value was “caused germination of the spores”.

Question: For `OC[C@H]1O[C@@](CO)(O[C@H]2O[C@H](CO)[C@@H](O)[C@H](O)[C@H]2O)[C@@H](O)[C@@H]1O` [sucrose], which “Germination of spores (decrease in relative OD580)” value [2] is on record?
Answer: The value was “None”.

Question: Which “Germination of spores (decrease in relative OD580)” value [1] does the source give for `N[C@@H](Cc1c[nH]cn1)C(=O)O` [L-histidine] here?
Answer: The value was “caused germination of the spores”.

Question: With `[Br-].[K+]` [KBr] as the molecule, how does the Gmax ([6]; heat-activated spores, 0.5 mM KBr overnight at 4° C. before full germinant solution) read?
Answer: The Gmax was 92%.

Question: What about the Gmax ([6]; heat-activated spores, 0.5 mM KBr overnight at 22° C. before full germinant solution) of the same molecule?
Answer: The Gmax was 65%.

Question: What about the Gmax ([6]; heat-activated spores, 3.0 mM KBr overnight at 4° C. before full germinant solution) of the same molecule?
Answer: Its Gmax is 123%.

Question: And the Gmax ([6]; heat-activated spores, 3.0 mM KBr overnight at 22° C. before full germinant solution)?
Answer: Its Gmax is 65%.

Question: And the Gmax ([6]; heat-activated spores, 10.0 mM KBr overnight at 4° C. before full germinant solution)?
Answer: Its Gmax is 85%.

Question: And the Gmax ([6]; heat-activated spores, 10.0 mM KBr overnight at 22° C. before full germinant solution)?
Answer: The Gmax was 61%.

Question: And the “Gmax as compared to spores not pretreated with KBr” value ([6]; heat-treated spores, at 22° C., 0.5, 3.0, or 10.0 mM KBr)?
Answer: The value was “decreased”.

Question: And the “Percentage of spores that germinated (Gmax) as compared to spores not pretreated with KBr” value ([6]; native or heat-treated spores, at 4° C., 3.0 or 10.0 mM KBr)?
Answer: Its value is “increased”.

Question: What about the Gmax ([6]; native spores, 0.5 mM KBr overnight at 4° C. before full germinant solution) of the same molecule?
Answer: The Gmax was 24%.

Question: What about the Gmax ([6]; native spores, 0.5 mM KBr overnight at 22° C. before full germinant solution) of the same molecule?
Answer: Its Gmax is 62%.

Question: What about the Gmax ([6]; native spores, 3.0 mM KBr overnight at 4° C. before full germinant solution) of the same molecule?
Answer: Its Gmax is 31%.

Question: And the Gmax ([6]; native spores, 3.0 mM KBr overnight at 22° C. before full germinant solution)?
Answer: Its Gmax is 96%.

Question: What about the Gmax ([6]; native spores, 10.0 mM KBr overnight at 4° C. before full germinant solution) of the same molecule?
Answer: The Gmax was 29%.

Question: What about the Gmax ([6]; native spores, 10.0 mM KBr overnight at 22° C. before full germinant solution) of the same molecule?
Answer: Its Gmax is 103%.

Question: And the “Tlag as compared to spores not pretreated with KBr” value ([6]; some samples: 4° C. native spores 3.0 or 10.0 mM KBr, 22° C. heat-activated spores 0.5 mM KBr)?
Answer: The value was “different”.

Question: What does the source list for `O=C(CO)[C@@H](O)[C@H](O)[C@H](O)CO` [D-fructose]?
Answer: Germination of spores (decrease in relative OD580) [2]: None; Germination (DPA release) in presence of D-fructose ([3]; 10 mM D-fructose, spores not treated with L-alanine (0 mM)): did not germinate; Germination (DPA release) with D-fructose ([4]; 10 mM D-fructose, spores not treated with L-alanine): did not germinate
